Measured values as given in patent publication US20170112873A1, “Method and Topical Composition for the Treatment of Rosacea and Skin Erythema Using Selenium Sulfide” (priority 2015, published 2017).

Test system: facial Rosacea
Assay: clinical type observations of topical application in facial Rosacea
Type: in vivo

SMILES: S=[Se]=S [selenium sulfide]
- redness, small dilated blood vessels and small red bumps characterizing the facial Rosacea (clinical type observations): observed to be decreased
- effectiveness in facial Rosacea (fluid form selenium sulfide of 1% strength): Effective in most instances
- redness, flushing and inflammation associated with facial Rosacea and skin erythema (topical application, clinical type observations): effective in significantly reducing
